{
  "source": "patent US20250305004A1",
  "about": "“ENHANCING GENE TARGETING EFFICIENCY IN HUMAN CELLS WITH DNA-PK INHIBITOR TREATMENT” (The Board of Trustees of the Leland Stanford Junior …, priority 2022, published 2025)",
  "assay_type_in_all_cases": "cell-based, human",
  "key": {"STING1 locus in HSPCs": {"test_system": "STING1 locus in HSPCs", "test": "RNP/AAV6 gene targeting at STING1 locus in HSPCs", "conditions": "seemingly inactive gRNA (sg5)", "text": "(§1) ICE analysis for quantification of gene editing.\n(§2) CD34+ HSPC culture and genome editing."}, "HBB locus in HSPCs": {"test_system": "HBB locus in HSPCs", "test": "Editing of SCD mutation at HBB locus in HSPCs (AAV6 or ssODN donor)", "text": "as §1, §2"}, "CFTR locus in HBECs": {"test_system": "CFTR locus in HBECs", "test": "RNP/AAV6 gene targeting at CFTR locus in HBECs", "conditions": "0.5 μM", "procedure": "as §1\nCell culture and genome editing of HBECs. Human bronchial epithelial cells (HBECs) were obtained from Lonza Inc., the Primary Airway Cell Biobank at McGill University, the Cystic Fibrosis Foundation Cell Bank or the University of North Carolina. […] Cells were cultured at 37° C. in 5% 02 and 5% CO2."}, "HBA1 locus in PSCs": {"test_system": "HBA1 locus in PSCs", "test": "RNP/AAV6 gene targeting / gene replacement at HBA1 locus in PSCs", "conditions": "0.5 μM", "procedure": "Gene targeting efficiency was measured by droplet digital PCR (ddPCR) and flow cytometry (for GFP) to measure the allelic targeting efficiency (FIG. 2B) and percentage of targeted cells (FIG. 2C) respectively. […] The treatment was carried out for 24 hours post gene targeting and the efficiency was calculated 1 week post gene targeting using ddPCR analysis.\nFirst, we tested the treatment for editing the sickle cell disease (SCD) and cystic fibrosis (CF) mutations at HBB and CFTR loci respectively using the previously described Cas9 RNP and AAV6 donor reagents in WT PSC^71-73 (FIG. 19a-d).\nPSC culture and genome editing. […] For each nucleofection, RNP complex was prepared with 5 μg of Cas9 protein and 2 μg of gRNA and incubated for 15 mins at room temperature. PSCs were dissociated into single cells using Accutase (Innovative Cell Technologies, cat: AT104). […] Resuspended cells were added to one well of a 16-well Nucleocuvette Strip (Lonza) and nucleofection was performed in the 4D nucleofector (Lonza) using the program, CA137. Nucleofected PSCs were plated in mTeSR1 medium supplemented with 10 μM of Y27632 at a density of 100,000 cells per well in 48-well plate, AAV6 vector and DNA-PKcs inhibitors were added to the medium at indicated concentrations. […] From the following day, PSCs were cultured in mTeSR1 without Y27632. Gene targeting efficiency was analyzed at 4-6 days post-editing.\nddPCR analysis of targeted integration. Gene targeting efficiency for the knock-in of multi-kb sequences was measured through digital droplet PCR (ddPCR) analysis. […] After PCR, the droplets were analyzed using the QX200 Droplet Digital PCR reader (Biorad) and Quantasoft software was used to determine the number of copies of the target and reference DNA in the droplets. The allelic gene targeting efficiency was calculated as the percentage of target DNA copies relative to that of the reference. […]\nICE analysis for quantification of gene editing. […] Following PCR, the amplicons were detected on agarose gel and purified from the gel using GeneJet Gel Extraction Kit (Thermo Fisher Scientific, cat: K0692). […]"}, "STING1 locus in PSCs": {"test_system": "STING1 locus in PSCs", "test": "RNP/AAV6 gene targeting at STING1 locus (V155M) in PSCs", "procedure": "In comparison, the untreated cells had around 30% INDELs (FIG. 4D-E).\nFor this, we tested gene targeting at the STING1 locus to introduce a point mutation (V155M) associated with an autoinflammatory disease called STING-associated vasculopathy with onset in infancy (SAVI)^86 (FIG. 12a). […] To test the feasibility of building a primary cell SAVI model, we next performed the STING1 gene targeting in human CD34+ HSPCs.\nPSC culture and genome editing. Gene editing experiments were performed with three PSC lines: H9 embryonic stem cells (ESC) (WiCell) and the previously described 1205-4 and 1208-2 iPS cell lines^106. PSCs were maintained in feeder free conditions on Matrigel (corning, cat: 354277) coated plates in mTeSR1 medium ([…] technologies, cat: 85850). For gene editing, 24 h prior to nucleofection PSCs were pretreated with 10 μM of Y27632 (Cayman Chemical, cat: 10005583). […] PSCs were dissociated into single cells using Accutase (Innovative Cell Technologies, cat: AT104). […] Resuspended cells were added to one well of a 16-well Nucleocuvette Strip (Lonza) and nucleofection was performed in the 4D nucleofector (Lonza) using the program, CA137. […] Gene targeting efficiency was analyzed at 4-6 days post-editing.\nas §1"}},
  "note": "“Also recorded” adds a separate entry of the source.",
  "data": [
    {"smiles": "Cc1cc2ncnn2cc1Nc1ncc2c(n1)n(C1CCOCC1)c(=O)n2C", "note": "[AZD7648, 7-methyl-2-((7-methyl-[1,2,4]triazolo[l,5-a]pyridin-6-yl)amino)-9-(tetrahydro-2H-pyran-4-yl)-7,9-dihydro-8H-purin-8-one]", "values": [
      {"measurement": "INDELs after gene targeting", "setting": "STING1 locus in HSPCs", "value": "no INDELs"},
      {"measurement": "INDELs after gene targeting", "setting": "HBB locus in HSPCs; AAV6 donor, 0.5 μM", "value": "almost no INDELs; also recorded: nearly INDEL-free levels"},
      {"measurement": "gene targeting frequency", "setting": "HBB locus in HSPCs; ssODN donor […], AZD7648 0.5 μM, untreated 49%", "value": 65, "unit": "%"},
      {"measurement": "alleles with INDELs vs untreated", "setting": "CFTR locus in HBECs; CF patient derived HBECs", "value": "much lower frequency of alleles with INDELs"},
      {"measurement": "improvement of frequency of gene targeted (GFP+) cells", "setting": "CFTR locus in HBECs; exon 1 knock-in", "value": "around 2 fold"},
      {"measurement": "effect on gene targeting vs untreated", "setting": "HBA1 locus in PSCs", "value": "enhanced the gene targeting significantly"},
      {"measurement": "INDELs after gene targeting", "setting": "STING1 locus in PSCs; active gRNA (sg3)", "value": "without INDELs; also recorded: no INDELs"},
      {"measurement": "INDELs after gene targeting", "setting": "STING1 locus in PSCs; seemingly inactive gRNA (sg5), 0.5 μM", "value": "without indels; also recorded: no INDELs"}
    ]}
  ]
}
